Source: US9103820B2 (priority 2004, dated 2015)
Positions of bridges follow the written chain, without caps; N, C: chain ends. Non-standard residues stand in square brackets, D forms with d. Chains are numbered I, II in the order given. No end group written: not given here. ξ: configuration not given here. ξK = NCCCCC(N)C(=O)O; Ahx = NCCCCCC(=O)O

Experiments:
[1] = molecular target: His-tagged Stx 2B-subunit (Escherichia phage 933W, UniProt P09386); assay: biochemical; type: binding, Escherichia coli O157:H7
Sequence of His-tagged Stx 2B-subunit (P09386 20-89 limits assumed): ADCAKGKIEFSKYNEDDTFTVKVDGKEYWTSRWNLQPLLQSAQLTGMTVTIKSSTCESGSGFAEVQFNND

STX = settings: read-out: affinity (Kd) for STX; cited from earlier work

I: MAKRRNPRRA[Ahx][ξK][ξK] / II: MAKRRNPRRA[Ahx][ξK] / III: MAKRRNPRRA[Ahx] / IV: MAKRRNPRRA[Ahx] (amide I:12-IV:C, I:13-II:C, II:12-III:C) [KRRNPRR]
Kd [1]: 2.1 µM

I: MAPPRRNRRA[Ahx][ξK][ξK] / II: MAPPRRNRRA[Ahx][ξK] / III: MAPPRRNRRA[Ahx] / IV: MAPPRRNRRA[Ahx] (amide I:12-IV:C, I:13-II:C, II:12-III:C) [PPRRNRR]
Kd [1]: 2.7 µM

I: MAFRRNRRNA[Ahx][ξK][ξK] / II: MAFRRNRRNA[Ahx][ξK] / III: MAFRRNRRNA[Ahx] / IV: MAFRRNRRNA[Ahx] (amide I:12-IV:C, I:13-II:C, II:12-III:C) [FRRNRRN]
Kd [1]: 1.7 µM

I: MAPPPRRRRA[Ahx][ξK][ξK] / II: MAPPPRRRRA[Ahx][ξK] / III: MAPPPRRRRA[Ahx] / IV: MAPPPRRRRA[Ahx] (amide I:12-IV:C, I:13-II:C, II:12-III:C) [PPPRRRR]
Kd [1]: 3.2 µM

Galα(1-4)-Galβ(1-4)-G1cβ1- [globo3 sugar]
Kd (STX): 1000 µM
